Values quoted from earlier work as cited in US20200170950A1, “COMPOSITIONS COMPRISING A CANNABINOID OR A CANNABIS-DERIVED COMPOUND, METHODS OF MAKING AND USE” (priority 2018, published 2020).

Experiments:
5-HT1A receptor = biological target: T1, 5-HT1A receptor (Homo sapiens, UniProt P08908)
T1 sequence (P08908 1-422): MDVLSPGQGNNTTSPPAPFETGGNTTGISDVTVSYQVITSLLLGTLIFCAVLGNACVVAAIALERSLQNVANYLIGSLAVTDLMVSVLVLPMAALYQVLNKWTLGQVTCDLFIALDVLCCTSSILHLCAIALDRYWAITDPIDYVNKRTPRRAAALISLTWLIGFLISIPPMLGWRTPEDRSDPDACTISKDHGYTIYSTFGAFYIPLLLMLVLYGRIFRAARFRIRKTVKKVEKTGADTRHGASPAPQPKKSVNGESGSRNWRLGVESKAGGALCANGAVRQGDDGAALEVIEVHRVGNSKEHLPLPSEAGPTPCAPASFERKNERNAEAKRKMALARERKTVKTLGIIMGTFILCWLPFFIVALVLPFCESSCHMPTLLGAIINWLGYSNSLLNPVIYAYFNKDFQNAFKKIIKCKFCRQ

CB1 receptor = CB1 receptor (Homo sapiens, UniProt P21554)
Sequence of CB1 receptor (P21554 whole entry): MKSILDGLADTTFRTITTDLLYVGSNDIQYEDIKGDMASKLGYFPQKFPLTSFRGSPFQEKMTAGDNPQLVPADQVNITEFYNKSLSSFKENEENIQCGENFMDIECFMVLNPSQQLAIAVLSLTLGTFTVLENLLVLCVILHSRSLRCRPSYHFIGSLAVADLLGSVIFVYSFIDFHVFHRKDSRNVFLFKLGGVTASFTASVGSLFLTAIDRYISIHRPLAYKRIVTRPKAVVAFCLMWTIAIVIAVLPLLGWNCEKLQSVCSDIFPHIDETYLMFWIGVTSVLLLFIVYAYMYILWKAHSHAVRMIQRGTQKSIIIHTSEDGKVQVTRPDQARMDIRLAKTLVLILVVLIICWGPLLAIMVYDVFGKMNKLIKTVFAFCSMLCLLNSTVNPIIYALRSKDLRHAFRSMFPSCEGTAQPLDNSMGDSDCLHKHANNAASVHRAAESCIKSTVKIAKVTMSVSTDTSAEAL

CB2 receptor = CB2 receptor (Homo sapiens, UniProt P34972)
Sequence of CB2 receptor (P34972 whole entry): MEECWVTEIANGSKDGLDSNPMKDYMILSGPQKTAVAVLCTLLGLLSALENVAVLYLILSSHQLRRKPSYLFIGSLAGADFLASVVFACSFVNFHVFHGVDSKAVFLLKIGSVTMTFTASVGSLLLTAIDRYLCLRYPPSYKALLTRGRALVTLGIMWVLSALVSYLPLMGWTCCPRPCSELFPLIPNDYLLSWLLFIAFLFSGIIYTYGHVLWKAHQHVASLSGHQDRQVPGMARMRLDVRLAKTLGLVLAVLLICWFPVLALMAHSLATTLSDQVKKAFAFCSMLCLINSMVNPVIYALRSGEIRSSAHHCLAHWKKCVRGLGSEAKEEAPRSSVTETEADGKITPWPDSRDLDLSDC

| SMILES | affinity, α2-adrenergic receptor agonist (α2-adrenergic receptor) | affinity, 5-HT1A receptor antagonist (5-HT1A receptor) | activity/affinity at CB1 receptor (CB1 receptor) | activity/affinity at CB2 receptor (CB2 receptor) |
| --- | --- | --- | --- | --- |
| CCCCCc1cc(O)c(C/C=C(\C)CCC=C(C)C)c(O)c1 [CBG, Cannabigerol] | high affinity | moderate affinity | low affinity | antagonist |
| CCCCCc1cc(O)c2c(c1)OC(C)(C)c1ccc(C)cc1-2 [CBN, Cannabinol] |  |  | partial agonist | higher affinity |
